Results taken from patent US4732970A, “Antitumor amino acid and peptide derivatives of 1,4-bis(aminoalkyl and hydroxy-aminoalkyl)amino)-5,8-dihydroxyanthraquinones” (priority 1986, dated 1988).

Experiments:
[1] = tested on: melanotic melanoma B16 tumor; experiment: Melanotic Melanoma B16 test; format: in vivo, BDF1 mice; conditions: for Median Survival: BDF1 mice; for T/C × 100 (%): ratio of survival time treated/control
Procedure: The animals used were BDFl mice, all of the same sex, weighing a minimum of 17 g and all within a 3 g weight range. There were 12 animals per test group. A 1 g portion of melanotic melanoma B16 tumor was homogenized in 10 ml of cold balanced salt solution and a 0.5 ml aliquot of the homogenate was implanted intraperitoneally into each of the test mice. The test compounds were administered intraperitoneally on days 1, 5 and 9 (relative to tumor inoculation) at various doses. The animals were weighed and survivors recorded on a regular basis for 60 days. The median survival time and ratio of survival time for treated (T)/control (C) animals were calculated. The positive control compound was 1,4-bis[(2-aminoethyl)amino]-5,8-dihydroxyanthraquinone, dihydrochloride (U.S. patent application Ser. No. 87,354, filed Oct. 23, 1979).

[2] = tested on: lymphocytic leukemia P388; experiment: Lymphocytic Leukemia P388 Test; format: in vivo, BDF1 mice; conditions: for Median Survival: BDF1 mice
Procedure, shortened: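 BDF1 mice (5–6 per group) were inoculated i.p. with 10^6 P388 cells, then dosed i.p. on days 1, 5 and 9 at various doses. Survival was followed for 60 days, and median survival time and the treated/control (T/C) survival ratio were calculated.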

[3] = dose 0.75 mg/kg intraperitoneally on days 1, 5 and 9
[4] = dose 1.5 mg/kg intraperitoneally on days 1, 5 and 9
[5] = dose 3 mg/kg intraperitoneally on days 1, 5 and 9
[6] = dose 0.75 mg/kg intraperitoneally on days 1, 5 and 9, ratio of survival time treated/control
[7] = dose 1.5 mg/kg intraperitoneally on days 1, 5 and 9, ratio of survival time treated/control
[8] = dose 3 mg/kg intraperitoneally on days 1, 5 and 9, ratio of survival time treated/control

Q: Which “Median Survival” value [1, 3] does the source give for `C[C@@H](O)[C@H](N)C(=O)NCCNc1ccc(NCCNC(=O)[C@@H](N)[C@@H](C)O)c2c1C(=O)c1c(O)ccc(O)c1C2=O.O=C(O)C(F)(F)F.O=C(O)C(F)(F)F` (relative stereo) [Example 26, [2S-(2R*,2'R*,3S*,3'S*)]-N,N'-[(9,10-Dihydro-5,8-dihydroxy-9,10-dioxo-1,4-anthracenediyl)bis(imino-2,1-ethanediyl)]bis[2-amino-3-hydroxybutanamide]bis(trifluo roacetate)] here?
A: Its value is 35.0 days.

Q: And the “T/C × 100 (%)” value [1, 3]?
A: The value was 206%.

Q: What about the “Median Survival” value [1, 4] of the same compound?
A: The value was 39.5 days.

Q: What about the “T/C × 100 (%)” value [1, 4] of the same compound?
A: The value was 232%.

Q: And the “Median Survival” value [1, 5]?
A: Its value is 40.0 days.

Q: And the “T/C × 100 (%)” value [1, 5]?
A: Its value is 235%.

Q: What about the “Median Survival” value [2, 3] of the same compound?
A: Its value is 21.0 days.

Q: And the “T/C × 100 (%)” value [2, 6]?
A: The value was 210%.

Q: And the “Median Survival” value [2, 4]?
A: Its value is 22.5 days.

Q: And the “T/C × 100 (%)” value [2, 7]?
A: Its value is 225%.

Q: And the “Median Survival” value [2, 5]?
A: Its value is 33.5 days.

Q: And the “T/C × 100 (%)” value [2, 8]?
A: The value was 335%.

Q: For `Br.Br.Br.Br.NCCCC[C@H](N)C(=O)NCCNc1ccc(NCCNC(=O)[C@@H](N)CCCCN)c2c1C(=O)c1c(O)ccc(O)c1C2=O` (relative stereo) [Example 33, [S-(R*,R*)]-N,N'-[(9,10-Dihydro-5,8-dihydroxy-9,10-dioxo-1,4-anthracenediyl)bis(imino-2,1-ethanediyl)]bis[2,6-diaminohexanamide], tetrahydrobromide], which “Median Survival” value [1, 3] is on record?
A: The value was 26.5 days.

Q: And the “T/C × 100 (%)” value [1, 3]?
A: Its value is 156%.

Q: And the “Median Survival” value [1, 4]?
A: The value was 37.5 days.

Q: And the “T/C × 100 (%)” value [1, 4]?
A: Its value is 221%.

Q: And the “Median Survival” value [1, 5]?
A: Its value is 25.5 days.

Q: What about the “T/C × 100 (%)” value [1, 5] of the same compound?
A: The value was 162%.

Q: And the “Median Survival” value [2, 3]?
A: Its value is 23.0 days.

Q: And the “T/C × 100 (%)” value [2, 6]?
A: The value was 230%.

Q: What about the “Median Survival” value [2, 4] of the same compound?
A: Its value is 33.0 days.

Q: And the “T/C × 100 (%)” value [2, 7]?
A: Its value is 330%.

Q: What about the “Median Survival” value [2, 5] of the same compound?
A: Its value is 13.0 days.

Q: What about the “T/C × 100 (%)” value [2, 8] of the same compound?
A: Its value is 130%.

Q: Which results are given for `Cl.Cl.NCC(=O)NCCNc1ccc(NCCNC(=O)CN)c2c1C(=O)c1c(O)ccc(O)c1C2=O` [Example 19, N,N'-[(9,10-Dihydro-5,8-dihydroxy-9,10-dioxo-1,4-anthracenediyl)bis(imino-2,1-ethanediyl)]bis[2-amino-acetamide], dihydrochloride]?
A: Median Survival [1, 3]: 27.5 days; T/C × 100 (%) [1, 3]: 162%; Median Survival [1, 4]: 28.0 days; T/C × 100 (%) [1, 4]: 165%; Median Survival [1, 5]: 37.0 days; T/C × 100 (%) [1, 5]: 218%; response vs control in vivo at 0.75 mg/kg ([2]; Mus musculus, P388, ip, dose 0.75 mg/kg intraperitoneally on days 1, 5 and 9, ratio of survival time treated/control, read-out: T/C × 100 (%)): 183%; response vs control in vivo at 1.5 mg/kg ([2]; Mus musculus, P388, ip, dose 1.5 mg/kg intraperitoneally on days 1, 5 and 9, ratio of survival time treated/control, read-out: T/C × 100 (%)): 200%; response vs control in vivo at 3 mg/kg ([2]; Mus musculus, P388, ip, dose 3 mg/kg intraperitoneally on days 1, 5 and 9, ratio of survival time treated/control, read-out: T/C × 100 (%)): 288%; Median Survival [2, 3]: 22.0 days; Median Survival [2, 4]: 24.0 days; Median Survival [2, 5]: 34.5 days
